Source: patent US20210330603A1 (priority 2020, published 2021)

What was measured:
EHEC [1] = experiment: Western blots of secreted translocon components EspA and EspB, EHEC (LEE-encoded T3SS activity); type: cell-based, Escherichia coli O157:H7
EHEC [2] = type: cell-based, Escherichia coli O157:H7
C. rodentium [3] = type: cell-based, Citrobacter rodentium
S. Typhimurium [4] = experiment: Macrophage infection, intramacrophagic survival of S. Typhimurium in J774.1 murine macrophages; type: cell-based, Salmonella enterica serovar Typhimurium
S. Typhimurium [5] = experiment: Epithelial invasion assay, S. Typhimurium on HeLa cells; type: cell-based, Salmonella enterica serovar Typhimurium; settings: ST treated with 10 μM 2-AG prior to infection of HeLa cells
EHEC [6] = experiment: Growth curves of EHEC in the presence of AA and AG (FIG. 22); type: cell-based, Escherichia coli; settings: concentrations of 80 and 160 μM
Source text: (§1) FIG. 22. Growth curves for Staphylococcus aureus (left side graphs) and EHEC (right side graphs) in the presence of AA (top graphs) and AG (bottom graphs).
(§2) Some lipids are antimicrobial with respect to certain bacteria.

C. rodentium [7] = experiment: Growth kinetics of C. rodentium under LEE-inducing conditions (FIG. 11); type: cell-based, Citrobacter rodentium; settings: 10 μM 2-AG, microaerobic, DMEM-low glucose
C. rodentium [8] = experiment: Western blots of secreted translocon components EspA and EspB, C. rodentium; type: cell-based, Citrobacter rodentium; settings: physiological concentrations of 2-AG, late-log phase
FusK = experiment: qRT-PCR of LEE-encoded tir in EHEC ΔfusK; type: cell-based, Escherichia coli O157:H7; settings: 20 μM 2-AG, aerobic
EHEC [9] = experiment: Fluorescent actin staining (FAS) assay, EHEC pedestal formation on HeLa cells; type: cell-based, Escherichia coli O157:H7; settings: EHEC treated with 10 μM 2-AG prior to infection of HeLa cells
S. Typhimurium [10] = experiment: Growth curves of S. Typhimurium under SPI-1-inducing conditions; type: cell-based, Salmonella enterica serovar Typhimurium; settings: 10 μM 2-AG
CpxA = biological target: T1, CpxA (Escherichia coli O157:H7, UniProt P0AE84); experiment: Autophosphorylation of CpxA in liposomes; type: biochemical; settings: 10 μM 2-AG, 120 seconds or 10 minutes
T1 construct: made in house; host or cells: E. coli BL21(DE3) (printed 'B121 DE3'), IPTG induction, Ni-NTA purification
T1 sequence (P0AE84 1-457): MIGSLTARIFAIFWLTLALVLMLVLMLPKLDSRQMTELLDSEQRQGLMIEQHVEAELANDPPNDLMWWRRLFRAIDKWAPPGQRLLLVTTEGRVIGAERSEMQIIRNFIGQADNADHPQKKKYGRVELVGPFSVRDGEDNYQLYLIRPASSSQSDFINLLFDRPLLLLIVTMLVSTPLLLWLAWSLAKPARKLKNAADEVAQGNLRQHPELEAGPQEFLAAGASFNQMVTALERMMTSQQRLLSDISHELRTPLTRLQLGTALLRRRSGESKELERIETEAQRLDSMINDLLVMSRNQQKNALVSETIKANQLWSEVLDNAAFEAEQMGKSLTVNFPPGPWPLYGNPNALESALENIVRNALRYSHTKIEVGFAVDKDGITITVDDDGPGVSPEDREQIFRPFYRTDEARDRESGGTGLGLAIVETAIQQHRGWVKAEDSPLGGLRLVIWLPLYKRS

S. Typhimurium [11] = experiment: SipA secretion by S. Typhimurium under SPI-1-inducing conditions; type: cell-based, Salmonella enterica serovar Typhimurium; settings: 10 μM 2-AG
EHEC [12] = type: cell-based, Escherichia coli O157:H7; remark: listed apart in the source
EHEC [13] = experiment: Western blots of lysate-associated EspA, EspB and Tir in EHEC; type: cell-based, Escherichia coli O157:H7; settings: late-log phase
EHEC [14] = experiment: Growth kinetics of EHEC under LEE-inducing conditions (FIG. 11); type: cell-based, Escherichia coli O157:H7; settings: 10 μM 2-AG, microaerobic, DMEM-low glucose
S. Typhimurium [15] = experiment: Transcript levels of SPI-2 genes in S. Typhimurium; type: cell-based, Salmonella enterica serovar Typhimurium; settings: 10 μM 2-AG, SPI-2-inducing conditions, 3 hours
S. Typhimurium [16] = experiment: Targeted qPCR of SPI-1 genes in S. Typhimurium; type: cell-based, Salmonella enterica serovar Typhimurium; settings: 10 μM 2-AG, SPI-1-inducing conditions, late-log phase
QseC = biological target: T2, QseC (Escherichia coli O157:H7, UniProt Q8X524); experiment: Autophosphorylation of QseC in liposomes; type: biochemical
T2 construct: Myc (C); His (C); made in house; host or cells: E. coli BL21(DE3) (printed 'B121 DE3'), arabinose induction, Ni-NTA purification
T2 sequence (Q8X524 whole entry): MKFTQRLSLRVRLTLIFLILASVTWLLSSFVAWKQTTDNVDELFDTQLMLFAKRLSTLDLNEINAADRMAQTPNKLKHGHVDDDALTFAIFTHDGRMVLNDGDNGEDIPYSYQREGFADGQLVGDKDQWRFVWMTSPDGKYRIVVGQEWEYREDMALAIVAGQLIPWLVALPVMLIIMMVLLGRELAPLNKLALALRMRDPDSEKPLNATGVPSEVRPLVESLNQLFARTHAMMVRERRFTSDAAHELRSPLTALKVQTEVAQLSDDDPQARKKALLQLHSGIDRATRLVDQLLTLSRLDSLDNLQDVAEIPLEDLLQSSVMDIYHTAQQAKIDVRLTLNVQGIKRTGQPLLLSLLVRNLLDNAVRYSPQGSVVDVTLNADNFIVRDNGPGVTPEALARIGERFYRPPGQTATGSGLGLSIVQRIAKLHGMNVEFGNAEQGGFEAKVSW

Staphylococcus aureus = experiment: Growth curves of Staphylococcus aureus in the presence of AA and AG (FIG. 22); type: cell-based
Source text: as §1, §2

EHEC 86-24 [17] = experiment: EspA immunoblot of EHEC grown with CBD; type: cell-based, Escherichia coli O157:H7; settings: 50 μM CBD
EHEC strain 86-24 = experiment: qPCR of espA in EHEC grown in LG-DMEM with CBD; type: cell-based, Escherichia coli O157:H7
Citrobacter rodentium = experiment: Cannabidiol treatment of C. rodentium infected mice (fecal colony counts); type: in vivo, mouse; settings: single dose one-day post-infection
EHEC 86-24 [18] = experiment: Growth rate and growth yield of EHEC with CBD; type: cell-based, Escherichia coli O157:H7
C. rodentium [19] = experiment: Pharmacological inhibition of MgI in C. rodentium infected mice (FIG. 23); type: in vivo, mouse
[20] = physiological concentrations of 2-AG, late-log phase

For CCCCC/C=C\C/C=C\C/C=C\C/C=C\CCCC(=O)OC[C@@H](O)CO [1-AG, reference compound], the “LEE-encoded T3SS activity (EspA and EspB secretion)” value (EHEC [1]; 1-AG in contrast to 2-AG, late-log phase) was “does not attenuate LEE-encoded T3SS activity”.

For CCCCC/C=C\C/C=C\C/C=C\C/C=C\CCCC(=O)OC(CO)CO [2-AG, 2-arachidonoyl-glycerol], the “LEE transcription, targeted qPCR of LEE-encoded genes spanning its five operons” value (EHEC [2]) was “inhibitory effects of 2-AG on LEE transcription were confirmed”, the “transcription of Shiga toxin (stx2a)” value (EHEC [2]) was “no transcriptional effect” and the “expression of LEE-encoded genes in C. rodentium” value (C. rodentium [3]) was “decreased expression of LEE-encoded genes”. The survival within macrophages (S. Typhimurium [4]) was “decreased survival within macrophages”, the epithelial invasiveness (S. Typhimurium [5]) was “attenuated epithelial invasiveness” and the “growth of EHEC” value (EHEC [6]) was “does not inhibit growth”. The “growth of C. rodentium” value (C. rodentium [7]) was “did not correspond with altered growth”, the “EspA secretion, C. rodentium” value (C. rodentium [8]) was “significantly reduced” and the “EspB secretion, C. rodentium” value (C. rodentium [8]) was “significantly reduced”. The “activity of FusK” value (FusK) was “did not inhibit”, the “pedestal formation on epithelial cells (A/E lesion formation)” value (EHEC [9]) was “decreased pedestal formation” and the “S. Typhimurium growth kinetics” value (S. Typhimurium [10]) was “did not alter”. The “activity of CpxA (autophosphorylation)” value (CpxA) was “did not inhibit”, the “secretion of SipA” value (S. Typhimurium [11]) was “decreased secretion of SipA” and the “differentially expressed KEGG pathways (RNAseq)” value (EHEC [12]) was “significantly altered the expression four KEGG pathways”. For the same compound, the “expression of LEE-encoded genes (RNAseq)” value (EHEC [12]) was “significant downregulation of numerous LEE-encoded genes”, the “non-LEE encoded genes differentially expressed (RNAseq)” value (EHEC [12]) was “few non-LEE encoded genes were differentially expressed” and the “LEE activity in isogenic fadL mutant” value (EHEC [1]; EHEC ΔfadL, 10 μM 2-AG) was “no longer inhibited”. For the same compound, the “EspA secretion, EHEC” value (EHEC [1]; [20]) was “significantly reduced”, the “EspB secretion, EHEC” value (EHEC [1]; [20]) was “significantly reduced” and the “LEE functional activity in the qseC mutant in EHEC” value (EHEC [1]; qseC isogenic mutant, 10 μM 2-AG) was “not affected”. The “protein expression of EspA in EHEC lysates” value (EHEC [13]) was “significantly decreased”, the “protein expression of EspB in EHEC lysates” value (EHEC [13]) was “significantly decreased” and the “protein expression of Tir in EHEC lysates” value (EHEC [13]) was “significantly decreased”. For the same compound, the “growth of EHEC” value (EHEC [14]) was “did not correspond with altered growth”, the “expression of ssaV” value (S. Typhimurium [15]) was “decreased expression” and the “expression of sseF” value (S. Typhimurium [15]) was “decreased expression”. The “expression of hilD” value (S. Typhimurium [16]) was “inhibits expression”, the “expression of sipA” value (S. Typhimurium [16]) was “inhibits expression” and the “expression of sopB” value (S. Typhimurium [16]) was “inhibits expression”. For the same compound, the “Epi-mediated activation of QseC” value (QseC; 6 μM 2-AG, 50 μM epinephrine, 30 minutes) was “inhibited Epi-mediated activation of QseC” and the “QseC activation (autophosphorylation)” value (QseC; QseC reconstituted into liposomes) was “significantly diminished”.

In the case of Cc1c(C(=O)NN2CCCCC2)nn(-c2ccc(Cl)cc2Cl)c1-c1ccc(I)cc1 [AM251, reference compound], the “effect on 2-AG-mediated inhibition of QseC activity” value (QseC; 6 μM 2-AG and AM251, 30 minutes, liposome system) is reported as “prevented 2-AG-mediated inhibition of QseC activity”.

For CCCCC/C=C\C/C=C\C/C=C\C/C=C\CCCC(=O)O [Arachidonic acid], the “growth of S. aureus” value (Staphylococcus aureus) was “inhibits the growth”.

With C=C(C)[C@@H]1CCC(C)=C[C@H]1c1c(O)cc(CCCCC)cc1O [CBD, cannabidiol] the “expression of EspA protein (immunoblot)” value (EHEC 86-24 [17]) was “reduced expression of EspA”, the “decrease in expression of espA compared to the vehicle” value (EHEC strain 86-24; wt EHEC 86-24, 50 μM CBD) was 20.6 fold and the “reduction in expression of espA between the control and CBD” value (EHEC strain 86-24; ΔqseC deletion strain, 50 μM CBD) was 17.5 fold. For the same compound, the “ability of Citrobacter rodentium to colonize the intestines of mice” value (Citrobacter rodentium) was “inhibited the ability” and the “growth rate and growth yield” value (EHEC 86-24 [18]) was “neither the growth rate nor the growth yield for the wt and ΔqseC deletion strains were significantly altered”.

O=C(Oc1ccc([N+](=O)[O-])cc1)N1CCC(C(O)(c2ccc3c(c2)OCO3)c2ccc3c(c2)OCO3)CC1 [JZL184] was tested, and the “colonization of cecum tissues by C. rodentium” value (C. rodentium [19]) was “decreases colonization of cecum tissues”.

In the case of CCCCC/C=C\C/C=C\C/C=C\C/C=C\CCCC(=O)NCCO [anandamide, reference compound], the “LEE activity (EspA and EspB secretion)” value (EHEC [1]; anandamide 100 or 200 nM, late-log phase) is reported as “does not alter LEE activity”.
